Several values for one entry are separate records, joined by “and”; a condition that tells them apart may be missing. Identical values can stand only once. Counter-ions that a name gives are not always drawn.
Columns and labels:
ER = target: T1, ER (Homo sapiens, UniProt P03372); assay: FES-PET ER engagement in healthy postmenopausal female subjects; assay type: in vivo
T1 construct: from tissue; host or cells: uterus and pituitary of living human subjects
T1 sequence (P03372 1-595): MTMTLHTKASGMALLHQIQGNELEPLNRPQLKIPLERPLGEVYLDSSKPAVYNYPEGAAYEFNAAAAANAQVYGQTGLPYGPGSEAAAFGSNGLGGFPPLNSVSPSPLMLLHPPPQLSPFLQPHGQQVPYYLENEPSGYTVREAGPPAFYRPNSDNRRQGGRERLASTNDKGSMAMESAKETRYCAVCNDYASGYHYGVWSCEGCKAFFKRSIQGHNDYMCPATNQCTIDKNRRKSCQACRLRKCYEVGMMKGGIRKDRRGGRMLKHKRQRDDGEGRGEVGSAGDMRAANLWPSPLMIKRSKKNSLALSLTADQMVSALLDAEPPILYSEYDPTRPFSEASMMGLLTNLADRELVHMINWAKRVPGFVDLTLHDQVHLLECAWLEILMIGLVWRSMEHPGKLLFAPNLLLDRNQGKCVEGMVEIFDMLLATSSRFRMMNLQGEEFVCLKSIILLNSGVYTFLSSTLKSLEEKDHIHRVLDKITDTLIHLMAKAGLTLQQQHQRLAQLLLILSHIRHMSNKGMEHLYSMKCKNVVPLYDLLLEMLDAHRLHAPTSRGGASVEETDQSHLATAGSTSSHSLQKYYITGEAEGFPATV
Text: The subjects were 40-75 years old with BMI of 18.0-30 kg/m^2. Subjects had intact uterus. Subjects having evidence of clinically relevant pathology, increased risk of stroke or of history venous thromboembolic events, or use of concomitant medication less than 14 days prior to admission to clinical research center (paracetamol allowed up to 3 days prior) were excluded.

MCF-7 xenograft = assay: Proliferation marker Ki67 in MCF-7 xenograft tumors; assay type: in vivo, mice; conditions: 90 mg/kg, 8 hours after single dose and 24 hours after 4th dose
ovariectomized rats = assay: BMD in ovariectomized rats (dual emission x-ray absorptiometry); assay type: in vivo, Sprague-Dawley rats; conditions: E2 0.01 mg/kg; RAD1901 0.1-3 mg/kg, once daily 4 weeks
Description: As a model of postmenopausal bone loss, ovariectomy was performed on anesthetized adult female Sprague-Dawley rats, with sham surgery as a control. […] Animals in the sham surgery group were vehicle treated. All animals were euthanized by carbon dioxide inhalation 24 hours after the final dose. Bone mineral density was assessed at baseline and again after 4 weeks of treatment using PIXImus dual emission x-ray absorptiometry.

[1] = 500 mg PO once/day, Day 6, individual subjects 1-4, dihydrochloride

CCNCCc1ccc(CN(CC)c2cc(OC)ccc2[C@@H]2CCc3cc(O)ccc3C2)cc1 [RAD1901, (6R)-6-(2-(N-(4-(2-(ethylamino)ethyl)benzyl)-N-ethylamino)-4-methoxyphenyl)-5,6,7,8-tetrahydronaphthalen-2-ol dihydrochloride]
binding of labelled-estradiol to uterus and pituitary (ER; 200 mg or 500 mg once/day p.o. 6 days): significant reduction
Mean Bone SUV (ER; [1]): 0.48 and 0.55 and 0.47 and 0.52
Mean Muscle SUV (ER; [1]): 0.31 (2×) and 0.42 and 0.24
Mean Uterus SUV (ER; [1]): 0.58 (2×) and 0.33 and 0.41
post dose FES-PET signal at uterus and pituitary (ER; 500 mg p.o. once a day, six days): no noticeable signal of ER binding
proliferation marker Ki67 (MCF-7 xenograft): rapid decrease of the proliferation marker Ki67
ovariectomy-induced bone loss (BMD femur and spine) (ovariectomized rats): dose-dependent and statistically significant suppression of ovariectomy-induced bone loss
